Where “and” joins values, the source holds several entries; their conditions need not be identical. Equal entries are not always repeated. After the bases stand the sugars from the 5' end (letter, count) and the backbone: PS all phosphorothioate, else s phosphorothioate and o phosphodiester by linkage. Methylation of C is not given here. [mop] = methoxypropylphosphonate linkage; e = 2'-O-(2-methoxyethyl) (MOE); k = constrained ethyl (cEt); d = 2'-deoxy (DNA)
Molecular target: IRF5
Conditions: ASO

Sequence	target mRNA inhibition (KARPAS-229, 4 µM)	also measured
CATTCCATATACACAC (sugars k3 d10 k3, PS)	28%	–
TGAGTCATGGGCTGAG (sugars kkdddddddddkekek, PS)	0%	–
GCTGTCACATCTCCAC (sugars kekdddddddddeekk, PS)	0%	–
GCTTGGTCTTGACCTC (sugars kkkddddddddkekek, PS)	0%	–
ATCACCACTGTGTACC (sugars kddddddddddkekek, PS)	0%	–
TGCAACATCCATCAAT (sugars k3 d10 k2 d1, PS)	0%	–
ATTTCTGCTCCAGGTT (sugars kddddddddddkekek, PS)	39%	–
AGGAAGTGAGTCTCAA (sugars k3 d10 k3, PS)	42%	–
CACTGACACAGGCGGA (sugars k3 d9 k3 e1, PS)	0%	–
CTTGGTCTTGACCTCC (sugars k2 d9 e3 k2, PS)	11%	–
TTGTCTAGTGTCATGG (sugars k3 d10 k3, PS)	60% and 70%	target mRNA inhibition (KARPAS-229, 0.44444 µM): 37%; target mRNA inhibition (KARPAS-229, 12 µM): 84%
TCTTGACCTCCCGCTG (sugars kkddddddddkekekk, PS)	19%	–
GTGTCATGGAATTTTG (sugars k3 d10 k3, PS)	58%	–
TCAGCTTTCTTGTCTA (sugars k3 d10 k3, PS)	15%	–
AGTCATGGGCTGAGGC (sugars kddddddddddkekek, PS)	25%	–
GGTGAGTAGGACGAGT (sugars k3 d10 k3, PS)	48%	–
GTTCTTGGACTCTCAA (sugars kddddddddddkekek, PS)	35%	–
AGGAGTGAGACGAGCA (sugars kddddddddddkekek, PS)	37%	–
TCACCACTGTGTACCC (sugars kkdddddddddkdkdk, PS)	0%	–
ACTGACACAGGCGGAT (sugars k2 d9 e3 k2, PS)	0%	–
CAATTTTGCATTCCAT (sugars k3 d10 k3, PS)	52%	–
GTCTTTGAGGTCTGGG (sugars kkddddddddkekekk, PS)	34%	–
TGCACTGACACAGGCG (sugars k2 d8 e4 k2, PS)	0%	–

Sequence	target mRNA inhibition (KARPAS-229, 4 µM)	also measured
GGTGTATTTCCCTGTC (sugars kkddddddddddkeke, PS)	21%	–
GCTGTCACATCTCCAC (sugars k3 d9 k3 e1, PS)	23%	–
TCCAATTTTGCATTCC (sugars kdddddddddkekeke, PS)	6%	–
CATTCCATATACACAC (sugars kkddddddddkekekk, PS)	17%	–
TATCTCCGTCCTGGCT (sugars kddddddddddkekek, PS)	0%	–
CCTTCTGCAGGGAGTC (sugars kkkddddddddkekek, PS)	0%	–
GGTCTTTGAGGTCTGG (sugars kkdddddddddkdkdk, PS)	56%	–
ACATCTCCACATCAGT (sugars kkdddddddddkdkdk, PS)	28%	–
GGTTCTTGGACTCTCA (sugars kekdddddddddeekk, PS)	60% and 66%	target mRNA inhibition (KARPAS-229, 0.44444 µM): 31%; target mRNA inhibition (KARPAS-229, 1.33333 µM): 44%; target mRNA inhibition (KARPAS-229, 12 µM): 81%
TGAGTCTCAAACCAGG (sugars kkdddddddddkdkdk, PS)	0%	–
ACGAGCAAAGGGTGAG (sugars k3 d10 k3, PS)	47%	–
GTCTAGTGTCATGGAA (sugars kdddddddddkekeke, PS)	35%	–
GTTCTTGGACTCTCAA (sugars kdddddddddkekeke, PS)	0%	–
TCCAATTTTGCATTCC (sugars kekdddddddddeekk, PS)	78% and 76%	target mRNA inhibition (KARPAS-229, 0.44444 µM): 42%; target mRNA inhibition (KARPAS-229, 1.33333 µM): 68%; target mRNA inhibition (KARPAS-229, 12 µM): 82%
TATTTCTGCTCCAGGT (sugars k3 d9 k3 e1, PS)	45% and 67%	target mRNA inhibition (KARPAS-229, 0.44444 µM): 46%; target mRNA inhibition (KARPAS-229, 1.33333 µM): 52%; target mRNA inhibition (KARPAS-229, 12 µM): 74%
CTGTCACATCTCCACA (sugars kkdddddddddkekek, PS)	23%	–
TTGTCTAGTGTCATGG (sugars kkddddddddddkeke, PS)	38%	–
ACCATTCTATGCCTTT (sugars kkddddddddkekekk, PS)	0%	–
GGAAGTGAGTCTCAAA (sugars kkddddddddddkeke, PS)	55% and 49%	target mRNA inhibition (KARPAS-229, 0.44444 µM): 6%; target mRNA inhibition (KARPAS-229, 1.33333 µM): 12%; target mRNA inhibition (KARPAS-229, 12 µM): 65%
TGAGTCATGGAGCTGAG (sugars kdddddddddkekeked, PS)	0%	–
ACATCTCCACATCAGT (sugars k3 d9 k3 e1, PS)	11%	–
AGGTTCTTGGACTCTC (sugars kkkdddddddddkeke, PS)	0%	–
CCAATGCAACATCCAT (sugars k2 d8 e4 k2, PS)	0%	–

Sequence	target mRNA inhibition (KARPAS-229, 4 µM)	also measured
AGGTTCTTGGACTCTC (sugars kekdddddddddeekk, PS)	0%	–
CTGATATGATACCTAA (sugars k3 d10 k3, linkages s5 [mop]1 s9)	–	target mRNA inhibition (A-431, 0.00412 µM): 0%; target mRNA inhibition (A-431, 0.01225 µM): 15%; target mRNA inhibition (A-431, 0.03704 µM): 25%; target mRNA inhibition (A-431, 0.11111 µM): 54%; target mRNA inhibition (A-431, 0.33333 µM): 71%; target mRNA inhibition (A-431, 1 µM): 71%
GTCTTGACCTCCCGCT (sugars kkddddddddddkeke, PS)	65% and 69%	target mRNA inhibition (KARPAS-229, 0.44444 µM): 38%; target mRNA inhibition (KARPAS-229, 1.33333 µM): 47%; target mRNA inhibition (KARPAS-229, 12 µM): 78%
GTGAGTCTCAAACCAG (sugars kkddddddddddkeke, PS)	31%	–
CAGGTTCTTGGACTCT (sugars kdddddddddkekeke, PS)	0%	–
CCATTCTATGCCTTTT (sugars k3 d10 k3, PS)	43%	–
ACCACTGTGTACCCCA (sugars kkkdddddddddkeke, PS)	39%	–
TGATTCCAATTTTGCA (sugars k3 d10 k3, PS)	17%	–
ATCACCACTGTGTACC (sugars kkkdddddddddkeke, PS)	0%	–
TAATAGGAGTGAGACG (sugars k3 d10 k3, PS)	12%	–
CCAATTTTGCATTCCA (sugars kkkddddddddkekek, PS)	42%	–
TGTCTAGTGTCATGGA (sugars k2 d8 e4 k2, PS)	54%	–
TTATCTCCGTCCTGGC (sugars kkkddddddddkekek, PS)	0%	–
GCTTGGTCTTGACCTC (sugars kkdddddddddkdkdk, PS)	11%	–
CCTTCTGCAGGGAGTC (sugars kdddddddddkekeke, PS)	0%	–
GCTTGGTCTTGACCTC (sugars kdddddddddkekeke, PS)	17%	–
GTTCTTGGACTCTCAA (sugars kkddddddddkekekk, PS)	0%	–
GGTCTGGCCCTTTTGG (sugars kkkddddddddkekek, PS)	2%	–
AGGAAGTGAGTCTCAA (sugars kkkddddddddkekek, PS)	24%	–
GGTTCTTGGACTCTCA (sugars kkddddddddkekekk, PS)	0%	–
CTGATATGATACCTAA (sugars k3 d2 k1 d7 k3, PS)	–	target mRNA inhibition (A-431, 0.00412 µM): 18%; target mRNA inhibition (A-431, 0.01225 µM): 23%; target mRNA inhibition (A-431, 0.03704 µM): 41%; target mRNA inhibition (A-431, 0.11111 µM): 63%; target mRNA inhibition (A-431, 0.33333 µM): 80%; target mRNA inhibition (A-431, 1 µM): 75%
CAATGCAACATCCATC (sugars kdddddddddkekeke, PS)	0%	–
ACTGACACAGGCGGAT (sugars kkdddddddddkekek, PS)	0%	–

Sequence	target mRNA inhibition (KARPAS-229, 4 µM)	also measured
CGGTCTTTGAGGTCTG (sugars kkdddddddddkekek, PS)	44%	–
ACATCTCCACATCAGT (sugars kkkddddddddkekek, PS)	14%	–
CCTTCTGCAGGGAGTC (sugars kekdddddddddeekk, PS)	14%	–
AGGAAGTGAGTCTCAA (sugars kddddddddddkekek, PS)	11%	–
TGAGTCATGGGCTGAG (sugars kkddddddddkekekk, PS)	0%	–
CTGATATGATACCTAA (sugars k3 d10 k3, PS)	59% and 76%	target mRNA inhibition (A-431, 0.00412 µM): 13%; target mRNA inhibition (A-431, 0.01225 µM): 29%; target mRNA inhibition (A-431, 0.03704 µM): 54%; target mRNA inhibition (A-431, 0.11111 µM): 80%; target mRNA inhibition (A-431, 0.33333 µM): 88%; target mRNA inhibition (A-431, 1 µM): 90%; target mRNA inhibition (KARPAS-229, 0.44444 µM): 42%; target mRNA inhibition (KARPAS-229, 1.33333 µM): 45%; target mRNA inhibition (KARPAS-229, 12 µM): 77%
ATCACCACTGTGTACC (sugars kkkddddddddkdkdk, PS)	0%	–
CAATGCAACATCCATC (sugars kkddddddddkekekk, PS)	0%	–
ATCACCACTGTGTACC (sugars kekdddddddddeekk, PS)	0%	–
GTCTTGACCTCCCGCT (sugars k3 d9 k3 e1, PS)	51%	–
GGTTCTTGGACTCTCA (sugars kkdddddddddkdkdk, PS)	29%	–
GTTGAATTTTGTGACT (sugars k3 d9 k3 d1, PS)	0%	–
AATGCAACATCCATCA (sugars k3 d10 k3, PS)	0%	–
CAGGTTCTTGGACTCT (sugars kkkdddddddddkeke, PS)	1%	–
TTCTGCAGGGAGTCAG (sugars kdddddddddkekeke, PS)	0%	–
ACCACTGTGTACCCCA (sugars kkddddddddkekekk, PS)	15%	–
TTGTGACTGTATTACC (sugars k3 d10 k3, PS)	56%	–
AAGGGCACAGACGCAGG (sugars kdddddddddkekeked, PS)	0%	–
ATGGTGTTATCTCCGT (sugars kddddddddddkekek, PS)	0%	–
CACTGACACAGGCGGA (sugars kkkddddddddkekek, PS)	0%	–

— the OligoGym collection
